Reference: patent US11648248B1 (King Abdulaziz University, priority 2022, dated 2023)
≈ marks a conversion by molar mass, not a printed value. Like-named read-outs stand apart in the source and are kept apart here.

Tests used:
Type in all cases: cell-based
[1] = test system: Escherichia coli BW25113 (wild-type); experiment: MIC broth microdilution, initial screening; conditions: Escherichia coli, E. coli BW25113, 18-20 hours, read-out: minimum inhibitory concentration (MIC) E. coli (Wild-type)
Experimental: (§1) The minimum inhibitory concentrations (MICs) of the tested compounds and control drugs (linezolid, vancomycin, gentamicin (antibiotics) and fluconazole and 5-fluorocytosine (5-FC) (antifungal drugs)) were determined using the broth microdilution method, according to guidelines outlined by the Clinical and Laboratory Standards Institute (CLSI, Clinical and Laboratory Standards Institute, Methods for antimicrobial susceptibility testing of anaerobic bacteria; approved standard, M11-A8. 8th ed., 2012; CLSI, Clinical and Laboratory Standards Institute. M27-A3 Reference Method for Broth Dilution Antifungal Susceptibility Testing of Yeasts; Approved Standard—Third Edition, Wayne, Pa., 2008) against clinically-relevant bacterial (methicillin-resistant Staphylococcus aureus (MRSA), Escherichia coli, and C. difficile strains) and fungal (Candida albicans) strains. S. aureus and E. coli were grown aerobically overnight on tryptone soy agar plates at 37° C. C. difficile was grown anaerobically on brain heart infusion supplemented agar at 37° C. for 48 hours. C. albicans was grown aerobically overnight on yeast peptone dextrose (YPD) agar plate at 35° C. Afterwards, a bacterial solution equivalent to 0.5 McFarland standard was prepared and diluted in cation-adjusted Mueller-Hinton broth (CAMHB) (for S. aureus and E. coli) to achieve a bacterial concentration of about 5×10^5 CFU/mL. C. difficile was diluted in brain heart infusion supplemented broth, supplemented with yeast extract, hemin and vitamin K to achieve a bacterial concentration of about 5×10^5 CFU/mL. C. albicans was diluted in Roswell Park Memorial Institute (RPMI 1640) medium with glutamine and without bicarbonate (GIBCO by Life Technologies, Green Island, N.Y., USA) which was buffered to pH 7.0 with 0.165 M of [3-(N-morpholino) propanesulfonic acid] (MOPS) (DOT Scientific Inc., Burton, Mich., USA) to achieve a fungal concentration of about 1.5×10^3 CFU/mL. Compounds and control drugs were added in the first row of the 96-well plates and serially diluted with the corresponding media containing bacteria. Plates were then incubated aerobically at 37° C. for 18-20 hours (for S. aureus and E. coli). C. difficile was incubated anaerobically at 37° C. for 48 hours. C. albicans was incubated aerobically at 37° C. for 24 hours.
(§2) The minimum inhibitory concentrations (MICs) of the tested compounds and control drugs; linezolid, vancomycin, gentamicin (antibiotics) and fluconazole and 5-fluorocytosine (5-FC) (antifungal drugs) were determined using the broth microdilution method, according to guidelines outlined by the Clinical and Laboratory Standards Institute (CLSI)^1, 2, 3 against clinically-relevant bacterial (methicillin-resistant Staphylococcus aureus (MRSA), Escherichia coli and Clostridium difficile strains) and fungal (Candida albicans) strain. S. aureus and E. coli were grown aerobically overnight on tryptone soy agar plates at 37° C. C. difficile was grown anaerobically on brain heart infusion supplemented agar at 37° C. for 48 hours. C. albicans was grown aerobically overnight on yeast peptone dextrose (YPD) agar plate at 35° C. Afterwards, a bacterial solution equivalent to 0.5 McFarland standard was prepared and diluted in cation-adjusted Mueller-Hinton broth (CAMHB) (for S. aureus and E. coli) to achieve a bacterial concentration of about 5×10^5 CFU/mL. C. difficile was diluted in brain heart infusion supplemented broth, supplemented with yeast extract, hemin and vitamin K to achieve a bacterial concentration of about 5×10^5 CFU/mL. C. albicans was diluted in Roswell Park Memorial Institute (RPMI 1640) medium with glutamine and without bicarbonate (GIBCO by Life Technologies, Green Island, N.Y., USA) which was buffered to pH 7.0 with 0.165 M of [3-(N-morpholino) propanesulfonic acid]

[2] = test system: Escherichia coli JW55031 (TolC mutant); experiment: MIC broth microdilution, initial screening; conditions: Escherichia coli, read-out: minimum inhibitory concentration (MIC) E. coli (TolC mutant), E. coli JW55031, 18-20 hours
Experimental: as §1, §2

C. albicans (ATCC 64124) = experiment: MIC broth microdilution, initial screening; conditions: Candida albicans, read-out: minimum inhibitory concentration (MIC) C. albicans (ATCC 64124)
Experimental: as §1, §2

[3] = test system: multi-drug resistant staphylococcal strains; experiment: MIC against panel of staphylococcal strains; conditions: Staphylococcus; range over the staphylococcal panel; read-out: MIC values, tested staphylococcal strains
Description: Based upon the initial results obtained, the active compounds were further screened against additional clinical isolates of methicillin-sensitive S. aureus (MSSA), methicillin-resistant S. aureus (MRSA), vancomycin-resistant S. aureus (VRSA), Staphylococcus epidermidis, vancomycin-resistant Enterococcus faecium (VRE), vancomycin-resistant Enterococcus faecalis (VRE) and Streptococcus pneumoniae, as presented in Table 2. Additionally, we examined whether the compounds were bacteriostatic (inhibit bacteria from growing) or bactericidal (kill bacteria) by determining the minimum bactericidal concentration (MBC). The MBC was determined by plating 5 μL from each well where no growth was present (in the MIC plates) onto tryptic soya agar plates and incubating plates at 37° C. for 24 hours. The MBC was categorized as the lowest concentration that generated a 99.9% reduction in bacterial colony-forming units (Table 3).
as §2, with “acid] (MOPS) (dot scientific inc., Burton, Mich., USA) to achieve a fungal concentration of about 1.5×10^3 CFU/mL. Compounds and control drugs were added in the first row of the 96-well plates and serially diluted with the corresponding media containing bacteria/fungi. Plates were then, incubated aerobically at 37° C. for 18-20 hours (for S. aureus and E. coli). […]” for “acid]”

[4] = test system: Clostridium difficile (ATCC-BAA1870); experiment: MIC broth microdilution, initial screening; conditions: Clostridioides difficile, ATCCBAA1870, 48 h
Experimental: as §1, §2

[5] = read-out: minimum inhibitory concentration (MIC) C. difficile (ATCC-BAA1870), anaerobic, 48 hours

| Structure (SMILES) | MIC [1] [µg/mL] | MIC [2] [µg/mL] | MIC (C. albicans (ATCC 64124); ATCC64124, 24 h) [µg/mL] | MIC [3] [µg/mL] | MIC [4, 5] [µg/mL] | MIC (C. albicans (ATCC 64124); ATCC64124, RPMI 1640, 24 hours) [µg/mL] | MIC ([4]; anaerobic, 48 hours, read-out: minimum inhibitory concentration (MIC) C. difficile (ATCC-BAA1870)) [µg/mL] | MIC ([4]; read-out: minimum inhibitory concentration (MIC) C. difficile (ATCC-BAA1870)) [µg/mL] |
| --- | --- | --- | --- | --- | --- | --- | --- | --- |
| CC(=O)NC[C@H]1CN(c2ccc(N3CCOCC3)c(F)c2)C(=O)O1 [Linezolid, reference compound] | > 64 | 8 (≈ 23.7 µM) |  |  |  |  |  |  |
| O=C(Nc1cccc(Nc2ccc(Cl)nn2)c1)Nc1ccc(Cl)c(Cl)c1 [MY14, 1-(3-((6-chloropyridazin-3-yl)amino)phenyl)-3-(3,4-dichlorophenyl)urea] | > 128 | 2 (≈ 4.89 µM) | > 128 | 2 to 8 (≈ 4.89 to 19.6 µM) |  |  |  |  |
| O=C(Nc1ccc(-c2ccc(=O)[nH]n2)cc1)Nc1ccc(Cl)c(Cl)c1 [MY21, 1-(3,4-dichlorophenyl)-3-(4-(6-oxo-1,6-dihydropyridazin-3-yl)phenyl)urea] |  |  |  | 0.5 to 1 (≈ 1.33 to 2.67 µM) | 0.5 to 1 (≈ 1.33 to 2.67 µM) |  |  |  |
| O=C(Nc1ccc(Oc2ccc(=O)[nH]n2)cc1)Nc1ccc(Cl)c(Cl)c1 [MY24, 1-(3,4-dichlorophenyl)-3-(4-((6-oxo-1,6-dihydropyridazin-3-yl)oxy)phenyl)urea] | > 128 | 1 (≈ 2.56 µM) | > 128 | 0.5 to 1 (≈ 1.28 to 2.56 µM) | 0.5 to 1 (≈ 1.28 to 2.56 µM) |  |  |  |
| O=C(Nc1ccc(Oc2ccc(=O)[nH]n2)cc1)Nc1ccc(Cl)c(C(F)(F)F)c1 [MY31, 1-(4-chloro-3-(trifluoromethyl)phenyl)-3-(4-((6-oxo-1,6-dihydropyridazin-3-yl)oxy)phenyl)urea] | > 128 | 0.5 (≈ 1.18 µM) | > 128 | 0.5 to 1 (≈ 1.18 to 2.35 µM) | 0.5 to 1 (≈ 1.18 to 2.35 µM) |  |  |  |
| CNC(=O)c1cc(Oc2ccc(NC(=O)Nc3ccc(Cl)c(C(F)(F)F)c3)cc2)ccn1 [Sorafenib, reference compound] | > 128 | 1 (≈ 2.15 µM) |  |  |  | > 128 | 1 (≈ 2.15 µM) |  |
| CN[C@H](CC(C)C)C(=O)N[C@H]1C(=O)N[C@@H](CC(N)=O)C(=O)N[C@H]2C(=O)N[C@H]3C(=O)N[C@H](C(=O)N[C@H](C(=O)O)c4cc(O)cc(O)c4-c4cc3ccc4O)[C@H](O)c3ccc(c(Cl)c3)Oc3cc2cc(c3O[C@@H]2O[C@H](CO)[C@@H](O)[C@H](O)[C@H]2O[C@H]2C[C@](C)(N)[C@H](O)[C@H](C)O2)Oc2ccc(cc2Cl)[C@H]1O [Vancomycin, reference compound] |  |  |  |  |  |  |  | 1 (≈ 0.69 µM) |
